Where a name gives a salt, the structure may show the parent alone. Read-outs that look alike come from different tables or passages of the source.

The target in assay [1] is T1, 5-HT1A receptor (Homo sapiens, UniProt P08908).
T1 construct: gene HTR1A; full-length human recombinant receptor in CHO-K1 cells (Ogeda); crude membranes
T1 sequence (P08908 1-422): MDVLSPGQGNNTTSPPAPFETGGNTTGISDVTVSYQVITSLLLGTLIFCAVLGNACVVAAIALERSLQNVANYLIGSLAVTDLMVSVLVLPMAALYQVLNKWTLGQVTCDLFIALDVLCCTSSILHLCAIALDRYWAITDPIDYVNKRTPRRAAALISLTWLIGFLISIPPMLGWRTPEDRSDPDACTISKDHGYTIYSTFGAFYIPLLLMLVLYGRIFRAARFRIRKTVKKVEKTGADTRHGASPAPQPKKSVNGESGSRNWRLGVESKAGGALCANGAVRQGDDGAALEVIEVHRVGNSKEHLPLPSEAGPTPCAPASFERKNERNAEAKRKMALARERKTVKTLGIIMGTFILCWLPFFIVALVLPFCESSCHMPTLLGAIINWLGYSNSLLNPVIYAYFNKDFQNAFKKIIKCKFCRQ
Put plainly: cell-based. Further details: species or system CHO-K1; cAMP HTRF agonist assay, Gi coupled receptors, inhibition of stimulated cAMP. The conditions noted are these: cAMP. How it is done: Concentration–response curves were performed in parallel with the agonists. […] After addition of the lysis buffer and 1‐hr incubation, cAMP concentrations were estimated according to the manufacturer specification with the HTRF kit (Cisbio International, Codelet, France). In brief, increasing concentrations of agonists were added to stably transfected cells in buffer in an Optiplate (PerkinElmer Life Sciences, Massachusetts, USA). The plates were incubated, and cells were then lysed by the addition of HTRF reagents (cAMP‐Cryptate and anti‐cAMP‐d2 reagents) and diluted in lysis buffer, followed by incubation at room temperature. […] Additionally, the reference values obtained were compared to historical values obtained from the same receptor and used to validate the experimental session. […] For the new assays developed in this study (i.e., 5‐ht1E receptor), the two independent pIC50 determined must be concordant with a 1 log unit interval for the assays to be validated.

Assay [2] addresses T2, 5-HT2A receptor (Homo sapiens, UniProt P28223).
T2 construct: gene HTR2A; full-length human recombinant receptor in CHO-K1 cells (Ogeda); crude membranes
Put plainly: cell-based. The arrangement: species or system CHO-K1; IPOne HTRF agonist assay, IP1 accumulation in adherent transfected cells. How it is done:
The assay was performed on adherent cells. For agonist testing, the medium was removed and 20 μl of assay buffer plus 20 μl of the studied agonist or the reference agonist were added in each well. The plate was incubated for 60 min at 37°C with 5% CO2. IP1‐D2 reagent and anti‐IP1 cryptate reagents were dispensed in the wells, and IP1 concentrations were then measured following the manufacturer instructions (IPOne HTRF assay kit; Cisbio International, Codolet, France). In brief, increasing concentrations of agonists were added to stably transfected cells in buffer in an Optiplate (PerkinElmer Life Sciences). The plates were incubated, and cells were then lysed by the addition of HTRF reagents (IP1‐D2 reagent and anti‐IP1 cryptate reagents) and diluted in lysis buffer, followed by incubation at room temperature. […] Additionally, the reference values obtained were compared to historical values obtained from the same receptor and used to validate the experimental session. […] For the new assays developed in this study (i.e., 5‐ht1E receptor), the two independent pIC50 determined must be concordant with a 1 log unit interval for the assays to be validated. […]

Assay [3] has as its target T2, 5-HT2A receptor. Description: biochemical. Format: CHO-K1 membranes. The arrangement: radioligand competition binding on cell membranes, filtration and TopCount scintillation counting. The conditions noted are these: for Ki: read-out: 5‐HT2A / pKi (converted). How it is done: Competition binding was performed in duplicate in the wells of a 96‐well plate containing binding buffer (optimized for each receptor), cell membrane extracts (approximately 20,000 cells distributed in the 96‐well plate), radiotracer, and test agonist. Non‐specific binding was determined by co‐incubation with 200‐fold excess of competitor. Cells were incubated and exposed to varying concentrations (1 pM to 10 μM) of a range of displacer agonists (see below). The samples were incubated in a final volume of 0.1 ml and then filtered over Unifilter plates (Perkin Elmer, Massachusetts, USA) pretreated for 2 hr to limit tracer non‐specific binding. Filters were washed five times with 0.5 ml of ice‐cold washing buffer (tris 50 mM pH 7.4) and 50 μl of Microscint 20 (Perkin Elmer) were added to each filter. The plates were incubated 15 min at room temperature on an orbital shaker and then counted with a TopCount™ (Perkin Elmer) for 1 min per well. […] Additionally, the reference values obtained were compared to historical values obtained from the same receptor and used to validate the experimental session. […] For the new assays developed in this study (i.e., 5‐ht1E receptor), the two independent pIC50 determined must be concordant with a 1 log unit interval for the assays to be validated. […]

Assay [4] has as its target T1, 5-HT1A receptor. Put plainly: biochemical. The conditions noted are these: GTPγS. Format: CHO-K1 membranes. The arrangement: GTPγS agonist functional assay. The text has this:
Additionally, the reference values obtained were compared to historical values obtained from the same receptor and used to validate the experimental session. […] For the new assays developed in this study (i.e., 5‐ht1E receptor), the two independent pIC50 determined must be concordant with a 1 log unit interval for the assays to be validated.

For assay [5], the target named is T1, 5-HT1A receptor. Description: biochemical. Further details: radioligand competition binding on cell membranes, filtration and TopCount scintillation counting. It is filed as CHO-K1 membranes. The conditions noted are these: radioligand displacement; read-out: 5‐HT1A / pIC50 (converted). As to the method: Competition binding was performed in duplicate in the wells of a 96‐well plate containing binding buffer (optimized for each receptor), cell membrane extracts (approximately 20,000 cells distributed in the 96‐well plate), radiotracer, and test agonist. Non‐specific binding was determined by co‐incubation with 200‐fold excess of competitor. Cells were incubated and exposed to varying concentrations (1 pM to 10 μM) of a range of displacer agonists (see below). The samples were incubated in a final volume of 0.1 ml and then filtered over Unifilter plates (Perkin Elmer, Massachusetts, USA) pretreated for 2 hr to limit tracer non‐specific binding. Filters were washed five times with 0.5 ml of ice‐cold washing buffer (tris 50 mM pH 7.4) and 50 μl of Microscint 20 (Perkin Elmer) were added to each filter. The plates were incubated 15 min at room temperature on an orbital shaker and then counted with a TopCount™ (Perkin Elmer) for 1 min per well. […] Additionally, the reference values obtained were compared to historical values obtained from the same receptor and used to validate the experimental session. […] For the new assays developed in this study (i.e., 5‐ht1E receptor), the two independent pIC50 determined must be concordant with a 1 log unit interval for the assays to be validated.

[6] abbreviates: IP, read-out: 5‐HT2A / IP (converted).
The mark [7] stands for this setting: radioligand displacement, read-out: 5‐HT2A / pIC50 (converted).

T2 sequence (P28223 whole entry): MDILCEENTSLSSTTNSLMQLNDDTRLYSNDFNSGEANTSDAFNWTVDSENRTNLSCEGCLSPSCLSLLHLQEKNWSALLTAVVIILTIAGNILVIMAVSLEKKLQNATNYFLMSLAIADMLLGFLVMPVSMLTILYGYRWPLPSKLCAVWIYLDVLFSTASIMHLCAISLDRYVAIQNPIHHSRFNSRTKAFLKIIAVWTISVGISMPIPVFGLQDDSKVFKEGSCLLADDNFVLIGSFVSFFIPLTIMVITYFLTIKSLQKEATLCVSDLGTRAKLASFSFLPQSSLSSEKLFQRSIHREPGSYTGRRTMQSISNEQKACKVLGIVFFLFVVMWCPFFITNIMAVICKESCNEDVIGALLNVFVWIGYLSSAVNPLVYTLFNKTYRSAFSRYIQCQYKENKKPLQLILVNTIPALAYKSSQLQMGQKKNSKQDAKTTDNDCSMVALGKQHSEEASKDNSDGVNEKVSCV

In the case of `CNS(=O)(=O)CCc1ccc2[nH]cc(C3CCN(C)CC3)c2c1` [Naratriptan hydrochloride], the EC50 on 5-HT1A receptor [1] is greater than 10000 nM; at 5-HT2A receptor [2] (setting [6]), greater than 10000 nM; at 5-HT1A receptor [4] it was 302 nM. Moreover, the IC50 on 5-HT2A receptor [3] (setting [7]) is greater than 10000 nM; at 5-HT1A receptor [5], 49 nM. Moreover, the Ki on 5-HT2A receptor [3] (radioligand displacement) was greater than 10000 nM.
Turning to `CNS(=O)(=O)Cc1ccc2[nH]cc(CCCN3CCN(c4ncncc4OC)CC3)c2c1` [Avitriptan fumarate], the EC50 on 5-HT1A receptor [1] is greater than 10000 nM; at 5-HT2A receptor [2] (setting [6]) it was 123 nM; at 5-HT1A receptor [4], 646 nM. In addition, the IC50 on 5-HT2A receptor [3] (setting [7]) is 7760 nM; on 5-HT1A receptor [5], 63.1 nM.
As for `CN(C)[C@@H]1CCc2[nH]c3ccc(NC(=O)c4ccc(F)cc4)cc3c2C1` [LY344864 hydrochloride], the EC50 on 5-HT1A receptor [1], at 5-HT2A receptor [2] and at 5-HT1A receptor [4] was greater than 10000 nM each time. The IC50 was 7760 nM at 5-HT2A receptor [3] and 759 nM on 5-HT1A receptor [5].
On to `CN1CCC[C@@H]1Cc1c[nH]c2ccc(CCS(=O)(=O)c3ccccc3)cc12` [Eletriptan hydrobromide], for which the EC50 at 5-HT1A receptor [1] was 1820 nM; on 5-HT2A receptor [2] (setting [6]) it was 851 nM; at 5-HT1A receptor [4], 417 nM. For the same molecule, the results for the IC50 on 5-HT2A receptor [3] (setting [7]) and on 5-HT1A receptor [5] were 3800 nM and 6.31 nM, respectively.
In the case of `N#Cc1ccc(N2CCN(C(=O)COc3ccc4[nH]cc(CCN)c4c3)CC2)cc1` [Donitriptan hydrochloride], the figures for the EC50 on 5-HT1A receptor [1], on 5-HT2A receptor [2] (setting [6]) and at 5-HT1A receptor [4] were 1150 nM, 7.94 nM and 182 nM, respectively. Moreover, the IC50 on 5-HT2A receptor [3] (setting [7]) was 1480 nM; at 5-HT1A receptor [5] it was 38 nM.
Turning to `CNC1CCc2[nH]c3ccc(C(N)=O)cc3c2C1` (racemic) [Frovatriptan racemate], the EC50 was greater than 10000 nM on 5-HT1A receptor [1], greater than 10000 nM at 5-HT2A receptor [2] (setting [6]) and 759 nM at 5-HT1A receptor [4]. Further, the IC50 was greater than 10000 nM on 5-HT2A receptor [3] (setting [7]) and 148 nM on 5-HT1A receptor [5]. Moreover, at 5-HT2A receptor [3] (radioligand displacement), the Ki is greater than 10000 nM.

Values taken from PMC6965684, “Characterization of binding, functional activity, and contractile responses of the selective 5‐HT1F receptor agonist lasmiditan” (British Journal of Pharmacology, 2019).
